{
  "source": "patent US8592344B2",
  "about": "“Pesticidal compositions comprising 4,5-dihydroxyindan-1-one” (Yissum Research Development Company of The Hebrew …, priority 2009, dated 2013)",
  "key": {"[1]": {"test_system": "citrus rust mite, Phyllocoptruta oleivora", "experiment": "whole plant or invertebrate", "type": "in vivo", "conditions": "recorded 24 h later", "procedure": "The CRM population was obtained from Mineola Tangelo (C. paradisi×C. reticulata) fruits at the Tzrifin farm, on the coastal plain of Israel. No acaricides are being used at this farm, making the location a suitable place for our purposes. In the laboratory the pest was reared on young seedlings (6-8 weeks old) of sour orange (Citrus aurantium).\nIn order to determine the CRM dose response to the toxin, 0.01, 0.02, 0.05, 0.1, 0.2 and 0.4 mg/ml of RPLC-cleaned toxin, dissolved in a two ml volume of ddH2O, was sprayed on the CRM (thirty CRMs/leaf, in four replicates). The infested seedlings were incubated at 25° C., (12L: 12D). Mite mortality rates were recorded 24 h later."}, "[2]": {"test_system": "Agrobacterium tumefaciens (strain ID1)", "experiment": "Antibacterial activity, inhibition haloes of chromatographed fractions", "type": "cell-based", "conditions": "RPLC fraction in 10 μl methanol, 24 hours, 28° C.", "procedure": "The bacterium was grown overnight in glass tubes containing a 5 ml Lennox Broth (LB, Difco). Fifty μl overnight-grown bacterial suspensions were added to 5 ml of LB containing 0.6% agar, and placed into Petri dishes (55 mm diameter). Each of the eluted chromatographed fractions was dried using a rotor evaporator, dissolved in 10 μl of methanol, pipetted into the Petri dishes and incubated at 28° C. Each dish was checked for inhibition haloes 24 hours later; 10 μl methanol alone was used as a control. This procedure was repeated four times to confirm of the toxicity of the fractions. The RPLC-cleaned fraction that was antagonistic to A. tumefaciens was concurrently assayed against the citrus rust mite (describe below)."}},
  "data": [
    {"smiles": "O=C1CCc2c1ccc(O)c2O", "note": "[argovin, 4,5-dihydroxyindan-1-one]", "values": [
      {"measurement": "mortality at 10 µg/mL", "setting": "[1]; 0.01 mg/ml sprayed, control 6%", "value": 39, "unit": "%"},
      {"measurement": "mortality at 200 µg/mL", "setting": "[1]; 0.2 mg/ml sprayed", "value": 100, "unit": "%"},
      {"measurement": "activity against A. tumefaciens (inhibition halo)", "setting": "[2]", "value": "active"}
    ]}
  ]
}
